Molecules are shown by their SMILES.

The data set is described as follows: gradient 5% acetonitrile 3 min, to 50% in 2 min, to 85% in 15 min, held 3 min, 100 µL/min. The following applies: column: Zorbax Extend-C18 2.1 x 50 mm; eluents: water / acetonitrile, 0.1% formic acid. A digest of the protocol: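 Over 3 months, pure standards in mixtures of ~100 molecules were run by HPLC coupled to a quadrupole time-of-flight mass spectrometer in positive and negative ionization mode. The column was a Zorbax Extend-C18 (2.1 × 50 mm, 1.8 μm) at 100 μL/min, eluted with water and acetonitrile each holding 0.1% formic acid, with 40 μL dead and 900 μL dwell volumes. Retention time was determined from adduct peaks chosen by software and checked manually.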
Compound `CCCN1C(=O)c2cc(C(=O)N3CCC(C)CC3)nn2CC1(C)C(=O)NC1CCCC1` (centres undefined) had an RP-LC retention time of 817 s.

`COc1ccccc1NC(=O)NCC(c1cccnc1)c1cn(C)c2ccccc12` (centres undefined) returned an RP-LC retention time of 678 s.

`Cc1ccc(-n2cc3c(c(C(=O)NC(C)C)c2=O)CC(C)(C)CC3=O)cc1` returned an RP-LC retention time of 932 s.

`CCOc1ccc(C2c3[nH]c4ccccc4c3CCN2C(=O)CCC2CCCC2)cc1` (centres undefined) yielded an RP-LC retention time of 1460 s.

In the case of `Fc1ccc(-c2nnc(Cc3nc(-c4ccc5c(c4)OCO5)no3)o2)cc1`, the RP-LC retention time worked out at 957 s.

Regarding `O=C(NC1CCCCCCC1)c1nnc(-c2ccc(S(=O)(=O)N3CCOCC3)cc2)o1`, the RP-LC retention time came to 991 s.

Consider `COc1ccc(-c2nc3cc(C)ccn3c2Nc2ccc(C)cc2)cc1`, for which the RP-LC retention time stood at 761 s.

For the compound `Cc1ccc(Nc2c(-c3ccc(Br)cc3)nc3cnccn23)cc1`, the RP-LC retention time came out at 1100 s.

Compound `O=C(NCC1CCN(C(=O)Nc2ccc(F)cc2)CC1)c1ccccc1Cl` yielded an RP-LC retention time of 713 s.

Consider `CC(C)c1ccc(Nc2c(-c3cc(Br)ccc3O)nc3ncccn23)cc1`, for which the RP-LC retention time stood at 1190 s.

The compound `CN1CCN(c2ccc(CNC(=O)C3CCCN(c4nccnc4Oc4ccccc4)C3)cc2)CC1` (centres undefined) came in with an RP-LC retention time of 664 s.

For the compound `CC(C)(C)c1ccc(OCC(O)CN2CCN(C(=O)c3ccccc3)CC2)cc1` (centres undefined), the RP-LC retention time is 608 s.

In turn, `O=C(NCc1cccnc1)C1CCN(Cc2cc3ccccc3n2Cc2ccccc2Cl)CC1` registered an RP-LC retention time of 630 s.

`CCOc1ccc(OCC)c(NC(=O)C2CC(=O)N(c3cccc(NC(C)=O)c3)C2)c1` (centres undefined) registered an RP-LC retention time of 772 s.

`Cc1ccn2cc(-c3ccc(NS(=O)(=O)c4ccccc4F)cc3)nc2n1` came in with an RP-LC retention time of 636 s.

In turn, `COC(=O)c1ccc(Cl)cc1NC(=O)N1CCN(C)c2ncccc21` returned an RP-LC retention time of 700 s.

Take `CC(C)(C)C(=O)Nc1ccc(N2CCC(N3CCCCC3)CC2)cc1C(=O)O`: the RP-LC retention time was found to be 615 s.

As for `CNC(=O)N1CCc2c(c(-c3nc(-c4ccc(F)cc4)no3)nn2C)C1`, the RP-LC retention time amounted to 723 s.

As to `O=C(CN1C(=O)CCc2cc(Br)ccc21)N1CCN(c2ccccc2F)CC1`, the RP-LC retention time came out at 951 s.

`CCCS(=O)(=O)c1nc2ccc(NS(=O)(=O)c3ccccc3Cl)cc2s1` returned an RP-LC retention time of 906 s.

Consider `Cc1cc(C)cc(N2CCC(NC(=O)c3cccc(C#N)c3)C2=O)c1` (centres undefined), for which the RP-LC retention time is 863 s.

With `CC1CCCCN1CCCNC(=O)CCCn1c(=O)c2cccn2c2ccccc21` (centres undefined), the RP-LC retention time was 627 s.

Regarding `O=C(Cc1ccccc1Cl)NCC1CCN(C(=O)Oc2ccccc2)CC1`, the RP-LC retention time was 704 s.

For the compound `Cc1ccnc(N2CCC(C(=O)Nc3ccc(Br)cc3)CC2)n1`, the RP-LC retention time came to 784 s.

With `CCOc1ccccc1NC(=O)C1CCCN(c2nc3ccccc3nc2OCC)C1` (centres undefined), the RP-LC retention time is 1320 s.

`O=S(=O)(NCCOc1ccc2c(c1)OCO2)c1ccc(F)c(Cl)c1` registered an RP-LC retention time of 903 s.

With `O=C(Nc1cnccn1)c1ccc(S(=O)(=O)N2CCCCCC2)cc1`, the RP-LC retention time is 766 s.

The compound `CCOc1ccc(NC(=O)c2c(NC(C)=O)sc3c2CCCC3)cc1` registered an RP-LC retention time of 1090 s.

Take `O=C(CCCn1c(=O)c2cccn2c2ccc(Br)cc21)NCc1ccccn1`: the RP-LC retention time worked out at 646 s.

Compound `CCn1c(=O)sc2cc(S(=O)(=O)N3CCC(C(=O)NC4CC4)CC3)ccc21` came in with an RP-LC retention time of 737 s.

Compound `Cc1ccc(NC(=O)NCCc2cn(CC(C)C)c3ncccc23)cc1C` registered an RP-LC retention time of 858 s.

`CCCN1C(=O)c2c(C(=O)NCc3ccc(F)cc3)ncn2CC1(C)C(=O)NCc1ccc(F)cc1` (centres undefined) showed an RP-LC retention time of 778 s.

With `CCOc1ccc(-c2nc(-c3cccc(-c4ccnn4CC)c3)no2)cc1OCC`, the RP-LC retention time was determined as 1300 s.

Regarding `Cc1ccc(OCC(=O)N(Cc2ccc(Br)o2)C2CCS(=O)(=O)C2)cc1C` (centres undefined), the RP-LC retention time came out at 996 s.

In turn, `CCN1C(=O)C(C)(C)COc2ccc(NC(=O)Cc3ccc(F)cc3)cc21` displayed an RP-LC retention time of 889 s.

`O=S(=O)(Nc1cccn2c(C3CCC3)nnc12)c1cccc2nsnc12` registered an RP-LC retention time of 719 s.

As for `COc1ccc(-c2cn3c(CC(=O)Nc4ccc(Cl)c(C(F)(F)F)c4)csc3n2)cc1OC`, the RP-LC retention time was found to be 882 s.

Consider `Cc1ccc(C2Cn3cnc(C(=O)N4CCC(C(=O)NCC5CCCCC5)CC4)c3CO2)cc1` (centres undefined), for which the RP-LC retention time stood at 885 s.

Consider `Cc1ccc(CNC(=O)C2(C)CN(S(C)(=O)=O)CC(=O)N2c2ccc(Cl)cc2)cc1` (centres undefined), for which the RP-LC retention time was 850 s.

Compound `COc1cccc(C(=O)N2CCC3(CC2)N=C(c2ccccc2)NO3)c1` showed an RP-LC retention time of 728 s.

Consider `COc1ccccc1/C=C/c1nc(-c2cccc(-c3ccnn3C)c2)no1`, for which the RP-LC retention time worked out at 1200 s.

In turn, `CCN(C(=O)c1cc2c(=O)oc3ccccc3c2n1C)c1ccccc1` showed an RP-LC retention time of 919 s.

The compound `CN1CCn2ccnc2C12CCN(C(=O)Nc1ccc(Cl)cc1C(F)(F)F)CC2` came in with an RP-LC retention time of 650 s.

In turn, `Cc1nc(-c2csc(S(=O)(=O)N3CCC(C(=O)Nc4ccccc4)CC3)c2)no1` showed an RP-LC retention time of 878 s.

As for `CS(=O)(=O)N[C@H]1C[C@@H]2C[C@H]1CN2C(=O)c1ccc(C(F)(F)F)s1`, the RP-LC retention time amounted to 663 s.

Compound `COc1ccccc1CNC(=O)C1CCN(S(C)(=O)=O)c2cc(Cl)ccc2O1` (centres undefined) came in with an RP-LC retention time of 910 s.

`CC(=O)N1c2ccc(S(=O)(=O)N3CCCC3C(=O)Nc3nc4ccc(C)cc4s3)cc2CC1C` (centres undefined) had an RP-LC retention time of 935 s.

`COc1ccc(-c2nnc3n2CCN(Cc2ccc(C)o2)C3)cc1`: the RP-LC retention time was 647 s.

Turning to `Cc1cc(C)n(-c2cc(N3CCCC(C(=O)Nc4cc(C)on4)C3)ncn2)n1` (centres undefined), the RP-LC retention time turned out to be 762 s.

As for `Cc1ccc(S(=O)(=O)Nc2ccc3c(c2)CCC(=O)N3)cc1Cl`, the RP-LC retention time was determined as 766 s.

The compound `COCCCNC(=O)CSc1nccc2c1ccn2Cc1ccccc1` showed an RP-LC retention time of 683 s.

Compound `Cc1noc(COC2CCCN(C(=O)CCc3c(C)noc3C)C2)n1` (centres undefined) registered an RP-LC retention time of 678 s.

Take `COc1cc(-c2nnc(SCC(=O)N3CCCCC3C)o2)cc(OC)c1OC` (centres undefined): the RP-LC retention time came out at 867 s.

The compound `CCC(=O)Nc1cc2c(cc1Sc1ccc(C)cc1)n(C)c(=O)n2C` returned an RP-LC retention time of 893 s.

As to `O=C(Cc1csc(-c2ccccc2)n1)Nc1nc(-c2ccccc2Cl)cs1`, the RP-LC retention time worked out at 1210 s.

For `Cc1cc(-c2nnc(-c3ccccc3)o2)c(C)n1CC(=O)N1CCN(C2CCCCC2)CC1`, the RP-LC retention time is 666 s.

As to `O=C(NCc1cccs1)NCC1CC(=O)N(Cc2ccc(F)cc2)C1` (centres undefined), the RP-LC retention time turned out to be 656 s.

As to `CCCCOc1ccccc1C(=O)N(Cc1ccc(Br)o1)C1CCS(=O)(=O)C1` (centres undefined), the RP-LC retention time was determined as 991 s.

As for `CC(Cc1ccco1)NC(=O)C1CCN(Cc2cn(C)c3ccc(Cl)cc23)CC1` (centres undefined), the RP-LC retention time amounted to 707 s.

In turn, `CN(C)CCNCc1ccc(-c2ccc(Br)cc2)o1` showed an RP-LC retention time of 598 s.

As to `COc1ccc(OC)c(-c2cc(C(=O)NCCn3cnc(-c4ccccc4)cc3=O)[nH]n2)c1`, the RP-LC retention time is 736 s.

`O=S(=O)(c1ccc2c(c1)CCCC2)N1CCCC1c1nc(-c2cccc(F)c2)no1` (centres undefined): the RP-LC retention time turned out to be 1330 s.

Regarding `Cc1cc(C(=O)N2CCC3(CC2)C(=O)N(C)c2ccccc23)n(C)n1`, the RP-LC retention time turned out to be 724 s.

With `CCc1ccc(NC(=O)C2(C)Oc3cccnc3N(CC)C2=O)cc1` (centres undefined), the RP-LC retention time amounted to 982 s.

Compound `COC(=O)c1ccccc1Nc1c(-c2ccc(Br)cc2)nc2cnccn12` displayed an RP-LC retention time of 1130 s.

For the compound `Cn1nc2n(c1=O)CCC(NC(=O)c1n[nH]c3c1CC(C(C)(C)C)CC3)CC2` (centres undefined), the RP-LC retention time was found to be 724 s.

`Cc1nc2c(SCC(=O)Nc3ccc4c(c3)OCO4)nnc(-c3ccccc3)c2s1` registered an RP-LC retention time of 847 s.

In the case of `O=C(O)C1CCCN1C(=O)c1ccc(N2C(=O)C3C4C=CC(C4)C3C2=O)cc1` (centres undefined), the RP-LC retention time came to 642 s.

In turn, `O=C(Nc1ccc2c(c1)OCO2)C1CCN(c2cnc3nccnc3c2)CC1` displayed an RP-LC retention time of 690 s.

With `O=C(c1cccc(Br)c1)N1CCN(c2nnc3ccccn23)CC1`, the RP-LC retention time worked out at 662 s.

The compound `COc1ccc(NC(=O)c2ccc(-c3cncnc3)nc2)cc1Cl` yielded an RP-LC retention time of 735 s.

`Cc1noc(-c2cc(=O)n(CC(=O)Nc3ccc(C(C)C)cc3)c3ccccc23)n1` displayed an RP-LC retention time of 1020 s.

`O=C(CN1CC=C(c2cnn(-c3ccccc3)c2)CC1)N1CCN(c2ccccc2)CC1` gave an RP-LC retention time of 702 s.

On to `O=C(Cn1c(=O)oc2ccccc21)NCc1n[nH]c(=O)c2ccccc12`, for which the RP-LC retention time turned out to be 595 s.

For `COC(=O)c1ccc(NC(=O)C2CCCN(S(=O)(=O)c3ccc(OC)c(C)c3)C2)cc1` (centres undefined), the RP-LC retention time was determined as 1000 s.

In the case of `COC(=O)c1ncoc1-c1ccccc1C(=O)NC1CCCC1`, the RP-LC retention time was 699 s.

In turn, `CCc1c(C(=O)O)nnn1-c1cccc(Br)c1` showed an RP-LC retention time of 757 s.

For `CCc1ccc(NC(=O)N2C[C@@H](F)C[C@H]2C(=O)N2CCc3ccccc3C2)cc1`, the RP-LC retention time was found to be 887 s.

`CN1C(=O)CCC2(CNC(=O)Nc3ccccc3)CCC=C12` (centres undefined) displayed an RP-LC retention time of 721 s.

These data come from the METLIN SMRT retention time set (Domingo-Almenara et al. 2019).
